Tests used:
Type in all cases: in vivo
[1] = tested on: reniform nematode (Rotylenchulus reniformis); assay: Greenhouse nematicidal experiment, soil infested with reniform nematode; conditions: for response patterns of nematodes to applications (reniform): compared with 2-propenal
Description: (§1) The nematicidal properties of 2-propenal (CH2═CH—CHO; acrolein), 2-butenal (CH3—CH═CH—CHO; crotonaldehyde), and trans 2-pentenal (CH3—CH2—CH═CH—CHO) were studied in greenhouse experiments with soil severely infected with the reniform nematode (Rotylenchulus reniformis). The soil was collected from a cotton field and was a sandy loam with pH 6.2, organic matter content <1.0% and cation exchange capacity <10 meq/100 gms soil. The soil was mixed 50:50 by volume, with washed fine siliceous river sand and the mixture, here-from referred to as soil. The moist soil (50% field capacity) was apportioned in 1 Kg quantities contained in 4L polyethylene bags. The compounds were applied to the soil in the bags, and after thorough mixing the treated soil was transferred to 1 L capacity, 4-inch-diam. plastic (PVC) pots which were then covered with a polyethylene bag (1 mil) held tightly to the outside wall of the pot with a rubber band. The covered pots were placed on a greenhouse table and after 10 days the bags were removed and soil samples for nematode analyses were collected from each pot. The pots were planted with “Young” soybean (5 seed/pot.) Soybean plants were grown for 8 weeks when they were removed, soil samples taken for nematode analysis (salad bowl incubation technique), and data were collected on shoot height, and fresh weights of shoots and roots. The relative health of the root systems was determined using a subjective scale. […] Values between 1 and 5 represented intermediate degrees of damage. The roots were incubated to assess nematode populations in them.
(§2) Emulsifiable concentrates (EC's) were prepared for all three compounds containing 10% (w/w) emulsogen. The EC's were used to make aqueous emulsions containing 2.5% active ingredient; these emulsions were then used to deliver the compounds to soil. Each compound was delivered using the following rates: 0, 25, 50, 75, 100, 125, 150, 175, 200, 225, 250, 275, 300 mgs/kg soil. In every experiment there were 6 replications (pots) per treatment arranged in a randomized complete block design.
(§3) All data were analyzed according to standard procedures for analysis of variance. Fisher's Least Significant Differences (FLSD) were calculated when F values were significant and are included in the graphs. Curvilineal analyses were conducted according to standard procedures with the TableCurve 2D program.

microbivorous nematodes = assay: Greenhouse nematicidal experiment, microbivorous nematodes in soil and roots; conditions: for response patterns of nematodes to applications (microbivorous): compared with 2-propenal
Description: as §1, §2, §3

[2] = tested on: yellow nutsedge (Cyperus esculentus); assay: Greenhouse herbicidal experiment, post-emergence; conditions: applied post-emergence
Experimental: Herbicidal properties of the compounds were studied as described for experiments on nematicidal activities. The soil was from a cotton field with a silt loam soil from a cotton field with similar properties as the one used for the nematode experiments. It was infested with a variety of weeds and was artificially seeded with 5 yellow nutsedge tubercles/pot. Nutsedge plants and other weeds were grown for a month, and the pots were then treated with 2-propenal and covered with polyethylene bags for 10 days, when the bags were removed and weed counts taken at two weeks and one month after treatment. Rates used in these experiments were: 0, 100, 200, 300, 400, 500, 600, 700, and 800 mgs/kg soil.
as §3

"Young" soybean = assay: Growth response of soybean plants in treated soil (greenhouse)
Description: as §1, §2, §3

tomato plant = assay: Tomato plant growth study, vigor rating; design: key to TOMATO VIGOR 1-5SCALE: 1 = very little vigor, 5 = very vigorous
Description: This example together with the data in Table 1 includes results of a study conducted to test the affects of acrolein on tomato plant growth. The first column in Table 1 includes, from left to right the treatment number, the treatment name, the rate of application, and the unit for that rate. The treatment name includes two separate treatment ingredients for each treatment number. The top name of each treatment name lists the test additive, and the bottom listing of the treatment name lists any additional herbicide applied in that particular treatment number. For example, in treatment number 5, methyl bromide was applied with a sandea herbicide. The rate and the rate unit headings, for this study, lists the amount of application of the treatment ingredients in pounds of active ingredients per acre (lb ai/a). Column 2 of Table 1 lists a vigor rating for each tomato plant on a scale of 1 to 5, wherein a 1 rating indicates a tomato plant with very little vigor, and a 5 rating indicates a very vigorous tomato plant. Column 2 lists vigor scale ratings for each treatment number taken on Aug. 17, 2005, and column 3 lists a vigor rating for each treatment taken on Aug. 25, 2005.

[3] = 0-300 mgs/kg soil, pre-plant samples
[4] = 50 mgs/kg soil equivalent to 100 lbs/A, pre-plant samples

## 2-butenal
[1]
  response patterns of nematodes to applications (reniform): very similar to those described for 2-propenal
Microbivorous nematodes
  response patterns of nematodes to applications (microbivorous): very similar to those described for 2-propenal

## 2-propenal
[2]
  doses resulting in practical elimination of the weed: ≥ 200 mgs/kgs soil
"Young" soybean; dosages above 50 mgs
  shoot height: gradual decline
  shoot weights: gradual decline
"Young" soybean; dosages higher than 175 mgs
  root weights: declined
"Young" soybean; dosages ≦50 mgs
  shoot height: Sharp increases
  shoot weights: Sharp increases
"Young" soybean; rates up to 175 mgs
  root weights: increased gradually
"Young" soybean; subjective scale 1 to 5, rates 25-300 mgs/kg soil
  root condition: improved by all but the highest dose
[1]; [3]
  populations of reniform nematodes in pre-plant samples: reduced exponentially
[1]; [4]
  reduction in populations of reniform nematodes: > 90%
Tomato plant; 17/Aug/05, DRIP 200 lb ai/a, no herbicide
  TOMATO VIGOR 1-5SCALE: 3.000
Tomato plant; 17/Aug/05, DRIP 200 lb ai/a, with SANDEA 0.25 lb ai/a
  TOMATO VIGOR 1-5SCALE: 3.000
Tomato plant; 17/Aug/05, DRIP 200 lb ai/a, with V-10142 0.25 lb ai/a
  TOMATO VIGOR 1-5SCALE: 3.000
Tomato plant; 17/Aug/05, DRIP 400 lb ai/a, no herbicide
  TOMATO VIGOR 1-5SCALE: 3.000
Tomato plant; 17/Aug/05, DRIP 400 lb ai/a, with SANDEA 0.25 lb ai/a
  TOMATO VIGOR 1-5SCALE: 2.750
Tomato plant; 17/Aug/05, DRIP 400 lb ai/a, with V-10142 0.25 lb ai/a
  TOMATO VIGOR 1-5SCALE: 3.000
Tomato plant; 17/Aug/05, DRIP 600 lb ai/a, no herbicide
  TOMATO VIGOR 1-5SCALE: 1.250
Tomato plant; 17/Aug/05, DRIP 600 lb ai/a, with SANDEA 0.25 lb ai/a
  TOMATO VIGOR 1-5SCALE: 1.500
Tomato plant; 17/Aug/05, DRIP 600 lb ai/a, with V-10142 0.25 lb ai/a
  TOMATO VIGOR 1-5SCALE: 2.250
Tomato plant; 17/Aug/05, INJECT 200 lb ai/a, no herbicide, listed as ACROLEIN
  TOMATO VIGOR 1-5SCALE: 4.250
Tomato plant; 17/Aug/05, INJECT 200 lb ai/a, no herbicide, listed as acrolein
  TOMATO VIGOR 1-5SCALE: 4.25
Tomato plant; 17/Aug/05, INJECT 200 lb ai/a, with SANDEA 0.25 lb ai/a
  TOMATO VIGOR 1-5SCALE: 4.000
Tomato plant; 17/Aug/05, INJECT 200 lb ai/a, with V-10142 0.25 lb ai/a
  TOMATO VIGOR 1-5SCALE: 4.000
Tomato plant; 17/Aug/05, INJECT 400 lb ai/a, no herbicide, listed as ACROLEIN
  TOMATO VIGOR 1-5SCALE: 4.000
Tomato plant; 17/Aug/05, INJECT 400 lb ai/a, no herbicide, listed as acrolein
  TOMATO VIGOR 1-5SCALE: 4.0
Tomato plant; 17/Aug/05, INJECT 400 lb ai/a, with SANDEA 0.25 lb ai/a
  TOMATO VIGOR 1-5SCALE: 3.000
Tomato plant; 17/Aug/05, INJECT 400 lb ai/a, with V-10142 0.25 lb ai/a
  TOMATO VIGOR 1-5SCALE: 4.000
Tomato plant; 17/Aug/05, INJECT 600 lb ai/a, no herbicide
  TOMATO VIGOR 1-5SCALE: 3.250
Tomato plant; 17/Aug/05, INJECT 600 lb ai/a, with SANDEA 0.25 lb ai/a
  TOMATO VIGOR 1-5SCALE: 3.250
Tomato plant; 17/Aug/05, INJECT 600 lb ai/a, with V-10142 0.25 lb ai/a
  TOMATO VIGOR 1-5SCALE: 3.250
Tomato plant; 25/Aug/05, DRIP 200 lb ai/a, no herbicide
  TOMATO VIGOR 1-5SCALE: 4.000
Tomato plant; 25/Aug/05, DRIP 200 lb ai/a, with SANDEA 0.25 lb ai/a
  TOMATO VIGOR 1-5SCALE: 3.750
Tomato plant; 25/Aug/05, DRIP 200 lb ai/a, with V-10142 0.25 lb ai/a
  TOMATO VIGOR 1-5SCALE: 3.850
Tomato plant; 25/Aug/05, DRIP 400 lb ai/a, no herbicide
  TOMATO VIGOR 1-5SCALE: 3.250
Tomato plant; 25/Aug/05, DRIP 400 lb ai/a, with SANDEA 0.25 lb ai/a
  TOMATO VIGOR 1-5SCALE: 3.500
Tomato plant; 25/Aug/05, DRIP 400 lb ai/a, with V-10142 0.25 lb ai/a
  TOMATO VIGOR 1-5SCALE: 3.250
Tomato plant; 25/Aug/05, DRIP 600 lb ai/a, no herbicide
  TOMATO VIGOR 1-5SCALE: 2.500
Tomato plant; 25/Aug/05, DRIP 600 lb ai/a, with SANDEA 0.25 lb ai/a
  TOMATO VIGOR 1-5SCALE: 2.500
Tomato plant; 25/Aug/05, DRIP 600 lb ai/a, with V-10142 0.25 lb ai/a
  TOMATO VIGOR 1-5SCALE: 2.900
Tomato plant; 25/Aug/05, INJECT 200 lb ai/a, no herbicide, listed as ACROLEIN
  TOMATO VIGOR 1-5SCALE: 4.750
Tomato plant; 25/Aug/05, INJECT 200 lb ai/a, no herbicide, listed as acrolein
  TOMATO VIGOR 1-5SCALE: 4.75
Tomato plant; 25/Aug/05, INJECT 200 lb ai/a, with SANDEA 0.25 lb ai/a
  TOMATO VIGOR 1-5SCALE: 4.750
Tomato plant; 25/Aug/05, INJECT 200 lb ai/a, with V-10142 0.25 lb ai/a
  TOMATO VIGOR 1-5SCALE: 4.750
Tomato plant; 25/Aug/05, INJECT 400 lb ai/a, no herbicide, listed as ACROLEIN
  TOMATO VIGOR 1-5SCALE: 5.000
Tomato plant; 25/Aug/05, INJECT 400 lb ai/a, no herbicide, listed as acrolein
  TOMATO VIGOR 1-5SCALE: 5.0
Tomato plant; 25/Aug/05, INJECT 400 lb ai/a, with SANDEA 0.25 lb ai/a
  TOMATO VIGOR 1-5SCALE: 4.250
Tomato plant; 25/Aug/05, INJECT 400 lb ai/a, with V-10142 0.25 lb ai/a
  TOMATO VIGOR 1-5SCALE: 4.650
Tomato plant; 25/Aug/05, INJECT 600 lb ai/a, no herbicide
  TOMATO VIGOR 1-5SCALE: 4.250
Tomato plant; 25/Aug/05, INJECT 600 lb ai/a, with SANDEA 0.25 lb ai/a
  TOMATO VIGOR 1-5SCALE: 4.000
Tomato plant; 25/Aug/05, INJECT 600 lb ai/a, with V-10142 0.25 lb ai/a
  TOMATO VIGOR 1-5SCALE: 3.750
Microbivorous nematodes; [3]
  populations of microbivorous nematodes in pre-plant samples: reduced exponentially
Microbivorous nematodes; 75 mg rate
  microbivorous populations at the end of the experiment: stimulated
Microbivorous nematodes; [4]
  reduction in populations of microbivorous nematodes: > 90%
Microbivorous nematodes; applications of ≦100 mgs/kg soil, soil and root samples
  microbivorous populations at the end of the experiment: recovered

## CC/C=C/C=O [2-pentenal, trans-2-pentenal]
[1]
  response patterns of nematodes to applications (reniform): very similar to those described for 2-propenal
Microbivorous nematodes
  response patterns of nematodes to applications (microbivorous): very similar to those described for 2-propenal

## CBr [METHYL BROMIDE 1, methyl bromide, reference compound]
Tomato plant; 17/Aug/05, 350 lb ai/a, no herbicide
  TOMATO VIGOR 1-5SCALE: 2.500
Tomato plant; 17/Aug/05, 350 lb ai/a, no herbicide, listed as METHYL BROMIDE 2
  TOMATO VIGOR 1-5SCALE: 2.250
Tomato plant; 17/Aug/05, 350 lb ai/a, with SANDEA 0.25 lb ai/a
  TOMATO VIGOR 1-5SCALE: 2.250
Tomato plant; 17/Aug/05, 350 lb ai/a, with SANDEA 0.25 lb ai/a, listed as METHYL BROMIDE 2
  TOMATO VIGOR 1-5SCALE: 2.500
Tomato plant; 17/Aug/05, 350 lb ai/a, with V-10142 0.25 lb ai/a
  TOMATO VIGOR 1-5SCALE: 2.000
Tomato plant; 17/Aug/05, 350 lb ai/a, with V-10142 0.25 lb ai/a, listed as METHYL BROMIDE 2
  TOMATO VIGOR 1-5SCALE: 2.500
Tomato plant; 25/Aug/05, 350 lb ai/a, no herbicide
  TOMATO VIGOR 1-5SCALE: 2.500
Tomato plant; 25/Aug/05, 350 lb ai/a, with SANDEA 0.25 lb ai/a
  TOMATO VIGOR 1-5SCALE: 2.750
Tomato plant; 25/Aug/05, 350 lb ai/a, with SANDEA 0.25 lb ai/a, listed as METHYL BROMIDE 2
  TOMATO VIGOR 1-5SCALE: 2.500
Tomato plant; 25/Aug/05, 350 lb ai/a, with V-10142 0.25 lb ai/a
  TOMATO VIGOR 1-5SCALE: 2.650
Tomato plant; 25/Aug/05, 350 lb ai/a, with V-10142 0.25 lb ai/a, listed as METHYL BROMIDE 2
  TOMATO VIGOR 1-5SCALE: 2.500
Tomato plant; 350 lb ai/a, no additional herbicide
  change in vigor scale rating over the term of the test: no change

From patent US20060089263A1, “2-Propenal and related enal compounds for controlling plant pests and weeds in soil” (priority 2004, published 2006)
